US20220389008A1, “4-QUINOLINONE ANTIBACTERIAL COMPOUNDS” (Janssen Sciences Ireland Unlimited Company, priority 2019, published 2022)
Several values for one entry are separate records, joined by “and”; a condition that tells them apart may be missing. Equal entries are not always repeated. Where two headings read alike, the source gives them in different places.

Columns and labels:
[1] = test system: M. tuberculosis (strain H37Rv and H37Ra); assay: Time kill kinetics assay (Test 3); type: cell-based, Mycobacterium tuberculosis
Description: Time Kill Kinetics Assays: Test 3
Bactericidal or bacteriostatic activity of the compounds can be determined in a time kill kinetic assay using the broth dilution method. In this assay, the starting inoculum of M. tuberculosis (strain H37Rv and H37Ra) is 10^6 CFU/ml in Middlebrook (1×) 7H9 broth. The test compounds (cyt bd inhibitors) are tested in combination with a cyt bc inhibitor (for example Q203 or Compound X) at the concentration ranging from 10-30 μM to 0.9-0.3 μM respectively. Tubes receiving no antibacterial agent constitute the culture growth control. The tubes containing the microorganism and the test compounds are incubated at 37° C. After 0, 1, 4, 7, 14 and 21 days of incubation samples are removed for determination of viable counts by serial dilution (10^0 to 10^−6) in Middlebrook 7H9 medium and plating (100 μl) on Middlebrook 7H11 agar. The plates are incubated at 37° C. for 21 days and the number of colonies are determined. Killing curves can be constructed by plotting the log10 CFU per ml versus time. A bactericidal effect of a cytochrome be and cytochrome bd inhibitor (either alone or in combination) is commonly defined as 2-log10 decrease (decrease in CFU per ml) compared to Day 0. The potential carryover effect of the drugs is limited by using 0.4% charcoal in the agar plates, and by serial dilutions and counting the colonies at highest dilution possible used for plating.
Compounds of the examples are/were tested in Test 3 (the kill kinetics) described above, obtaining results expressed as a log reduction in CFUs per ml as compared to Day 0.

[2] = test system: Mycobacterium tuberculosis strain H37Rv ΔctaE-ΔqcrCAB; assay: microbe, parasite or virus in culture; type: cell-based; conditions: 240 h
[3] = test system: Mitochondrial toxicity (Glu/Gal); assay: Mitochondrial toxicity (Glu/Gal) assay; type: cell-based; parameters: key to Score: “negative” means that in the test, it was found to have low mitotoxicity (and hence no mitotoxicity alerts); “positive” means that there were some mitotoxicity alerts; “inconclusive” means that no accurate conclusion could be drawn; conditions: for Score: mitotoxicity score; for Δ IC50,glu/IC50,gal: ratio glu/gal
[4] = test system: Mycobacterium tuberculosis (strain H37Ra), cyt bd; conditions: Mtb H37Ra; for (i) % OCR after cyt bd inhibitor: test compound 10 μM added after Compound X 0.9 μM; for (ii) % OCR after cccp: test compound 10 μM after Compound X 0.9 μM, then CCCP 1 μM
[5] = test system: rCaCh; assay: CVS / cardio tox rCaCh; type: binding, rat
[6] = test system: rNaCh; assay: CVS / cardio tox rNaCh; type: binding, rat
[7] = target: hERG (Homo sapiens, UniProt Q12809); assay: CVS / cardio tox hERG (DOF); type: binding
[8] = AMES II b (+/−rat S9)
[9] = PK parameters in mice
[10] = test system: h-cardiomyocytes; assay: CTCM Ca2+ transient h-cardiomyocytes HTS; conditions: 0.1 μm, 0.2 μm, 0.5 μm, 1 μm, 2.5 μm, 5 μm
[11] = GSH and CN adducts (reactive metabolite formation)
[12] = Compound X alone 0.17 μg/ml, Log Day 0 6.66
[13] = compound alone 12 μg/ml, Log Day 0 6.66
[14] = galactose medium, read-out: IC50, gal
[15] = glucose medium, read-out: IC50, glu
[16] = Q203 alone 0.168 μg/ml, Log Day 0 5.56
[17] = compound alone 12 μg/ml, Log Day 0 5.56 (Q203 experiment)
[18] = read-out: Cardio tox rNaCH (IC50)
[19] = DOF, read-out: Cardio tox hERG(DOF) (IC50)

Sequence of hERG (Q12809 whole entry): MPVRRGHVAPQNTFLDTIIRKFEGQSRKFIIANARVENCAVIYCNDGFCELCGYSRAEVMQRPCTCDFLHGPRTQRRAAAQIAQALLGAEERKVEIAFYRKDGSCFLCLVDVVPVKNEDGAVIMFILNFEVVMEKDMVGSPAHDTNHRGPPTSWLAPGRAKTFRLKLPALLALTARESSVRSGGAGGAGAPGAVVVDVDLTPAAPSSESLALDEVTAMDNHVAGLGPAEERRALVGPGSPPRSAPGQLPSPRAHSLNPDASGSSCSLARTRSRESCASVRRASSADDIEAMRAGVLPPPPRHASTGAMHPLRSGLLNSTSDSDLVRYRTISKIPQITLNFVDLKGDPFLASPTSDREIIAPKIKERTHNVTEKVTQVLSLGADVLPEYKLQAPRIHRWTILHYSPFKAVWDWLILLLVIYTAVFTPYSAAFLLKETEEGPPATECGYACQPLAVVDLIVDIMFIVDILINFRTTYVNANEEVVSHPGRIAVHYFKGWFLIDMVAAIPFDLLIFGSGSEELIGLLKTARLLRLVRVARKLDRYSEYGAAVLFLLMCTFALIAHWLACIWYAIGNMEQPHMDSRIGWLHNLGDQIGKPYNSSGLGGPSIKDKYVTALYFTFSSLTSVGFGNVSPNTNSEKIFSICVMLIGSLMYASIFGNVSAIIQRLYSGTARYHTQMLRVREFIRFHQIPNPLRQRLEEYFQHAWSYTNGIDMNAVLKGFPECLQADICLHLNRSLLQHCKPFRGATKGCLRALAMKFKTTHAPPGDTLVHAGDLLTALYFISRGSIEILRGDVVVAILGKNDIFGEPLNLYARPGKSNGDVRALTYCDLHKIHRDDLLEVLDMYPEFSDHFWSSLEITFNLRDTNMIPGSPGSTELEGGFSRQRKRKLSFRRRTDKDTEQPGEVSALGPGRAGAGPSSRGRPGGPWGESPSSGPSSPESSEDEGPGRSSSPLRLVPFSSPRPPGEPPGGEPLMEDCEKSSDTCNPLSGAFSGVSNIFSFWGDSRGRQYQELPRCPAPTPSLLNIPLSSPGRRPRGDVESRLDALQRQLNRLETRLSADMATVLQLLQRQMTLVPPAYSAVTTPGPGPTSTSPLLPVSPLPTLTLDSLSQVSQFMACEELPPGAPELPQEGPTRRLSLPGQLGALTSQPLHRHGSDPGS

SMILES	IC50 [2] [µM]	IC50 [3, 14]	IC50 [3, 15]	Score [3]	Δ IC50,glu/IC50,gal [3]	(i) % OCR after cyt bd inhibitor [4] [%]	(ii) % OCR after cccp [4] [%]	Cardio tox rCaCh IC50 (µM) [5]	IC50 [6, 18] [µM]	IC50 [7, 19] [µM]	also measured
CCc1nc2ccc(Cl)cn2c1C(=O)NCc1ccc(C2CC3(C2)CN(S(=O)(=O)C(F)(F)F)C3)cc1 [Compound X, 6-chloro-2-ethyl -N-({4-[2-(trifluoromethanesulfonyl)-2-azaspiro[3.3]heptan-6-yl]phenyl}methyl)imidazo[1,2-a]pyridine-3-carboxamide, reference compound]											Log Day 21 [1, 12]: 5.93 log CFUs per ml; Log Day 21-Log Day 0 [1, 12]: −0.73 log CFUs per ml
Cc1c(-c2nc3ccc(-c4cccc(OC(F)(F)F)c4)cn3n2)[nH]c2ccccc2c1=O [Compound 7]	1.41	20 µM	20 µM	negative	[x]0	36.5	54.6				Log Day 21 [1, 13]: 9.13 log CFUs per ml; Log Day 21-Log Day 0 [1, 13]: +2.47 log CFUs per ml
CCc1nc2ccc(Cl)cn2c1C(=O)NCc1ccc(N2CCC(c3ccc(OC(F)(F)F)cc3)CC2)cc1 [Compound Q203, 6-chloro-2-ethyl-N-(4-(4-(4-(trifluoromethoxy)phenyl)piperidin-1-yl)benzyl)imidazo[1,2-a]pyridine-3-carboxamide, reference compound]											Log Day 21 [1, 16]: 2.59 log CFUs per ml; Log Day 21-Log Day 0 [1, 16]: −2.97 log CFUs per ml
Cc1c(-c2nc3ccc(-c4ccc(OC(F)(F)F)cc4)cn3n2)[nH]c2ccccc2c1=O [Compound 6]	0.653	21.9 µM and 22.1 µM	15.6 µM and 26.5 µM	negative	1.2	39.7	58.4				Log Day 21 [1, 17]: 8.64 log CFUs per ml; Log Day 21-Log Day 0 [1, 17]: +3.08 log CFUs per ml; Log Day 21 [1, 13]: 9.06 log CFUs per ml; Log Day 21-Log Day 0 [1, 13]: +2.40 log CFUs per ml; Δ IC50,glu/IC50,gal ([3]; listed as 6 (repeat)): 1.4; IC50 ([5]; CVS): > 10 µM; IC50 ([6]; CVS, read-out: rNaCh IC50): > 10 µM; IC50 ([7]; CVS, read-out: hERG IC50): > 10 µM; AMES II b (+/−rat S9) [8]: negative; CI ([9]; mice): 1.69 mL/min/kg; Fab % ([9]; mice): 64%; half-life ([9]; mouse, in vivo): 5.6 h; CTCM Ca2+ transient h-cardiomyocytes HTS [10]: all no; GSH and CN adducts [11]: negative
Cc1c(-c2cn3ccc(Cc4ccc(OC(F)(F)F)cc4)cc3n2)[nH]c2ccccc2c1=O [Compound 52]	> 100	108 µM	134 µM	negative	1.2	82.2	148.1	~1.9	7.4	> 10	
COc1cc2[nH]c(-c3nc4ccc(-c5ccc(OC(F)(F)F)cc5)cn4n3)c(C)c(=O)c2cc1OC [Compound 70]	> 50	27.1 µM	100 µM	inconclusive	[x]3.69	102.2	165.65	>10, >10, >10	> 10	> 10	
Cc1c(-c2nc3cc(-c4ccc(OC(F)(F)F)cc4)ccn3n2)[nH]c2ccccc2c1=O [Compound 2]	1.33	100 µM	100 µM	negative	[x]0	24.8	38.3				Log Day 21 [1, 17]: 8.69 log CFUs per ml; Log Day 21-Log Day 0 [1, 17]: +3.13 log CFUs per ml
Cc1c(-c2nc3ccc(-c4cn(CC(F)(F)F)nn4)cn3n2)[nH]c2ccccc2c1=O [Compound 58]	> 25	100 µM	100 µM	negative	[x]0	139.74	153.33	>10, >10, >10	> 10	> 10	
Cc1c(-c2nc3ccc(F)cn3n2)[nH]c2ccccc2c1=O [Compound 33]	> 100	100 µM	100 µM	negative	[x]0	61.2	123.6	>10, >10, >10	> 10	> 10	
Cc1c(-c2nc3ccc(Br)cn3n2)[nH]c2ccccc2c1=O [Compound 55]	36.1	200 µM and 100 µM	200 µM and 100 µM	negative	[x]0;[x]0	109.2	148.3	>10, >10, >10	> 10	> 10	
